This passage reports TGI and GI50 results from PubChem BioAssay (NCI).

Test systems include M14 melanoma; SK-MEL-5 melanoma; OVCAR-3 ovarian; SK-MEL-2 melanoma; TK-10 renal; SW-620 colon; COLO 205 colon; RXF 393 renal; HL-60(TB) leukemia; BT-549 breast.
Test in all cases: NCI-60 cell line screen, 48 h

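Interpolation was linear, between the two tested concentrations surrounding the appropriate level; five concentrations were tested over 48 hours in 96-well plates. GI50 is the concentration that inhibits growth by half. At the TGI there is no net growth.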

With `CC1C(c2ccc(Cl)cc2)c2cc3c(cc2OC1N1CCOCC1)OCO3` (centres undefined), the TGI in the assay with M14 melanoma, with SK-MEL-5 melanoma, with OVCAR-3 ovarian, in the assay on SK-MEL-2 melanoma, in the assay with TK-10 renal and in the assay with SW-620 colon was above 100 µM throughout. In the assay on COLO 205 colon, this compound gave a TGI above 100 µM.
As to `CC(=O)N(O)c1ccc(-c2nc3ccccc3s2)cc1`, the TGI with M14 melanoma, in the assay on SK-MEL-5 melanoma, in the assay with OVCAR-3 ovarian, in the assay on SK-MEL-2 melanoma, with TK-10 renal and in the assay on RXF 393 renal was above 100 µM each time. Moreover, the TGI in the assay on SW-620 colon and in the assay with COLO 205 colon was above 100 µM each time.
With `Oc1[nH]c2ccccc2c1/C=c1/cc2c(c(-c3ccc(F)cc3)n1)=Nc1ccccc1-2`, the GI50 was 0.315 µM in the assay on M14 melanoma; 1.41 µM in the assay with SK-MEL-5 melanoma; 0.233 µM in the assay with OVCAR-3 ovarian; 0.327 µM with SK-MEL-2 melanoma; 0.282 µM with HL-60(TB) leukemia; 1.44 µM in the assay with TK-10 renal. The figures for the GI50 in the assay with RXF 393 renal, in the assay with SW-620 colon and in the assay with COLO 205 colon were 0.634 µM, 0.438 µM and 0.316 µM, respectively. For the same compound, the TGI in the assay with M14 melanoma came out at 1.41 µM; in the assay on SK-MEL-5 melanoma, 3.06 µM; with OVCAR-3 ovarian, 0.591 µM; with SK-MEL-2 melanoma, 1.34 µM; in the assay with HL-60(TB) leukemia it was 0.994 µM; in the assay on TK-10 renal, 3.71 µM. Further, the TGI with RXF 393 renal turned out to be 1.96 µM; with SW-620 colon it was 2.43 µM; with COLO 205 colon, 1.27 µM.
Regarding `O=C1Nc2ccccc2/C1=c1\[nH]c(=O)/c(=C\c2ccc(OCc3ccccc3)cn2)[nH]c1=O`, the TGI is above 100 µM in the assay with M14 melanoma; above 100 µM in the assay on SK-MEL-5 melanoma; above 100 µM in the assay with OVCAR-3 ovarian; above 100 µM in the assay with SK-MEL-2 melanoma; above 100 µM in the assay on HL-60(TB) leukemia; 50.1 µM in the assay with TK-10 renal. Moreover, the results for the TGI in the assay on RXF 393 renal, in the assay with SW-620 colon and with COLO 205 colon were 34.9 µM, above 100 µM and above 100 µM, respectively.
Take `COc1ccc(-n2sc3ncccc3c2=O)cc1`: the TGI with M14 melanoma is 41.3 µM; in the assay on SK-MEL-5 melanoma it was 44.6 µM; in the assay with OVCAR-3 ovarian, 60.8 µM; with SK-MEL-2 melanoma, above 100 µM; with HL-60(TB) leukemia, 41.5 µM; with TK-10 renal, 33.5 µM. The TGI in the assay with BT-549 breast was found to be 38.6 µM; with SW-620 colon, 79.6 µM; in the assay on COLO 205 colon, 35 µM.
As for `Clc1ccc(OCc2nn3c(CCc4nnc5sc(COc6ccc(Cl)cc6)nn45)nnc3s2)cc1`, the TGI in the assay on M14 melanoma is above 100 µM; in the assay on SK-MEL-5 melanoma, 23.7 µM; in the assay on OVCAR-3 ovarian, 65.8 µM; in the assay on SK-MEL-2 melanoma, 87.8 µM; with HL-60(TB) leukemia, 72 µM; in the assay on TK-10 renal, 80.7 µM. In addition, the figures for the TGI in the assay with RXF 393 renal and in the assay with SW-620 colon were 61.2 µM and above 100 µM, respectively.
With `CC(C)(C)N(Cc1ccc2c(c1)OCO2)C(=O)/C=C\Sc1ccccc1`, the TGI with M14 melanoma, with SK-MEL-5 melanoma, with OVCAR-3 ovarian, in the assay on SK-MEL-2 melanoma, in the assay on HL-60(TB) leukemia and with TK-10 renal was above 100 µM in each case. The TGI with BT-549 breast, with SW-620 colon and in the assay with COLO 205 colon was above 100 µM in each case.
`COc1cccc(/C=N/[N-]C(N)=O)c1[O-].[Cu+2].[OH3+].c1ccc(-c2ccccn2)nc1`: the TGI with M14 melanoma is 74 µM; in the assay on SK-MEL-5 melanoma, 31.6 µM; in the assay on OVCAR-3 ovarian, above 100 µM; with SK-MEL-2 melanoma, 45.1 µM; in the assay with HL-60(TB) leukemia, above 79.1 µM; in the assay on TK-10 renal, 42.9 µM. Further, the results for the TGI in the assay on RXF 393 renal, in the assay with SW-620 colon and with COLO 205 colon were 40.8 µM, above 100 µM and 55.4 µM, respectively. For the same compound, the GI50 in the assay with HL-60(TB) leukemia was 40.6 µM.
Consider `COc1cccc(-c2cc(=O)c3ccccc3[nH]2)c1`, for which the TGI in the assay with M14 melanoma is above 100 µM; in the assay with SK-MEL-5 melanoma, above 100 µM; in the assay with OVCAR-3 ovarian, above 31.6 µM; in the assay on SK-MEL-2 melanoma, above 100 µM; in the assay on HL-60(TB) leukemia, 8.57 µM; in the assay with TK-10 renal, above 100 µM. The TGI with RXF 393 renal was 21 µM; with SW-620 colon it was above 100 µM; in the assay with COLO 205 colon, above 38.2 µM.
`CCOC(=O)C1=C(C)N(c2ccc(OC)cc2)C2(O)C=CC(=O)C3=C(O)c4ccccc4C(=O)C312` (centres undefined): the TGI in the assay on M14 melanoma was determined as 21.8 µM; in the assay on SK-MEL-5 melanoma, 24.6 µM; in the assay with OVCAR-3 ovarian, 11.7 µM; with SK-MEL-2 melanoma, 31 µM; in the assay with HL-60(TB) leukemia it was 21.6 µM; in the assay on TK-10 renal it was 27.4 µM. For the same compound, the TGI is 29 µM with BT-549 breast, 29.8 µM in the assay on SW-620 colon and 24 µM in the assay with COLO 205 colon.
Turning to `CC1(C)CC(=O)C2=C(C1)OC1=C(CC(C)(C)CC1=O)C2c1ccccc1[N+](=O)[O-]` (centres undefined), the TGI in the assay on M14 melanoma, in the assay on SK-MEL-5 melanoma, in the assay on OVCAR-3 ovarian, in the assay with SK-MEL-2 melanoma, in the assay on HL-60(TB) leukemia and in the assay with TK-10 renal was above 100 µM each time. For the same compound, the TGI in the assay on RXF 393 renal, in the assay on SW-620 colon and in the assay on COLO 205 colon was above 100 µM each time.
For `CCOC(=O)Cc1nc2c(N)ncnc2n1C1OC(COC(C)=O)C(OC(C)=O)C1OC(C)=O` (centres undefined), the TGI in the assay with M14 melanoma, with SK-MEL-5 melanoma, in the assay with OVCAR-3 ovarian, in the assay with HL-60(TB) leukemia, in the assay on TK-10 renal and in the assay on BT-549 breast was above 100 µM throughout. In addition, the TGI in the assay on SW-620 colon and with COLO 205 colon was above 100 µM throughout.
As to `CCOC(=O)N(c1ccccc1)N(CC)C(=O)/C(C)=N/Nc1ccc([N+](=O)[O-])cc1`, the TGI came to 31.7 µM with M14 melanoma; 31.1 µM in the assay with OVCAR-3 ovarian; 30 µM in the assay on SK-MEL-2 melanoma; 35.8 µM in the assay on HL-60(TB) leukemia; 26.2 µM in the assay on RXF 393 renal; 36.7 µM in the assay with SW-620 colon. In addition, the TGI with COLO 205 colon is 33.5 µM.
Turning to `COc1cc(N(Cc2ccc3oc(=O)c(-c4ccccc4)nc3c2)Cc2ccc3oc(=O)c(-c4ccccc4)nc3c2)cc(OC)c1OC`, the TGI in the assay with M14 melanoma, with SK-MEL-5 melanoma, in the assay with OVCAR-3 ovarian, in the assay with SK-MEL-2 melanoma, in the assay on HL-60(TB) leukemia and with TK-10 renal was above 10 µM throughout. Besides, the TGI with RXF 393 renal, in the assay with SW-620 colon and in the assay on COLO 205 colon was above 10 µM each time.
